Where a name gives a salt, the structure may show the parent alone. Read-outs that look alike come from different tables or passages of the source.
How the values were obtained:
ALDH2 = target: T1, ALDH2 (Homo sapiens, UniProt P05091); experiment: ALDH isoform-specific enzyme assay, ALDH2 (NADH absorbance); format: biochemical; settings: read-out: IC50s ALDH2
T1 construct: purchased R & D Systems, Inc, Minneapolis, MN, USA
T1 sequence (P05091 18-517): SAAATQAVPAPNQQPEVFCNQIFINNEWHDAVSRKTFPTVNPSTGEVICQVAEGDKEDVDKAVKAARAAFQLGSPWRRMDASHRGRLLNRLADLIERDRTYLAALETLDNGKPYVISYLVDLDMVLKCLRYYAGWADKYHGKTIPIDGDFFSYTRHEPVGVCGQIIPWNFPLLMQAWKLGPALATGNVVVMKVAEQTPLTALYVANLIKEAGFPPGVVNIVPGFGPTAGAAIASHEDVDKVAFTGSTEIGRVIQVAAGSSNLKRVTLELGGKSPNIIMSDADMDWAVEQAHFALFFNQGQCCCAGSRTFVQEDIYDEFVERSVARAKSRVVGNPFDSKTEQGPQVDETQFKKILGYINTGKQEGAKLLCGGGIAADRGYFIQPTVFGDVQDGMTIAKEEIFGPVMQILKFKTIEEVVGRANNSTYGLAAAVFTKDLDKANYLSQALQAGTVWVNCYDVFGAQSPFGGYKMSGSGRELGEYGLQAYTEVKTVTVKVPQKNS
Method: (§2) ALDH enzyme assays were performed using a kit as described by the kit manufacturer (R & D Systems, Inc, Minneapolis, MN, USA). Isoform-specific aldehydes were converted to their respective carboxylic acids along with conversion of NAD+ to NADH (absorbance at 340 nm). […] Similarly, 0.5 μg/mL of ALDH2 was used in the reaction with 2 mM of acetaldehyde as the substrate and 0.2 μg/mL of ALDH3A1 was used in the reaction with 1 mM of 4-nitrobenzaldehyde (4-NBA) as the substrate following addition of ALDH inhibitors.
(§3) ALDH1A1, 2 and 3A1 enzyme assays were performed as described by the manufacturer (R & D systems). Isoform-specific aldehydes were converted to their respective carboxylic acids along with the conversion of NAD+ to NADH (absorbance at 340 nm).

ALDH1A1 = target: T2, ALDH1A1 (Homo sapiens, UniProt P00352); experiment: ALDH isoform-specific enzyme assay, ALDH1A1 (NADH absorbance); format: biochemical; settings: read-out: IC50s ALDH1A1
T2 construct: purchased R & D Systems, Inc, Minneapolis, MN, USA
T2 sequence (P00352 1-501): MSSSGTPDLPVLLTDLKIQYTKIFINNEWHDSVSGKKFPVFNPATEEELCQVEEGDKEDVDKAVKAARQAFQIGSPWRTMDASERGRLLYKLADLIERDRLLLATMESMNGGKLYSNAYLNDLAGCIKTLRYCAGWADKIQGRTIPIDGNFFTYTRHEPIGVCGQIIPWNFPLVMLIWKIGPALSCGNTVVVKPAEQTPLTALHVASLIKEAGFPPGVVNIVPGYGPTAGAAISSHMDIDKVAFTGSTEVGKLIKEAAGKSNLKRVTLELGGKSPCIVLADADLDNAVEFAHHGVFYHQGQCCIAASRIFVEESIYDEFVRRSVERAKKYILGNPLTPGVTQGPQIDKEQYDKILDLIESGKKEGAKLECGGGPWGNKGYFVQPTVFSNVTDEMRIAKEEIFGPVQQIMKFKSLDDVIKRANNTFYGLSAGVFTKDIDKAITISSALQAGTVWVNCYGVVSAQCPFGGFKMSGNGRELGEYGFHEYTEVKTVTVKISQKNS
Method: as §2, §3

[1] = system: UACC 903 and 1205 Lu cells; experiment: Lipid peroxidation (TBARS), melanoma cells; format: cell-based, human; settings: 5 μM, 24 hours, vs DMSO
Text: DMSO served as the vehicle control.

ALDH3A1 = target: T3, ALDH3A1 (Homo sapiens, UniProt P30838); experiment: ALDH isoform-specific enzyme assay, ALDH3A1 (NADH absorbance); format: biochemical
T3 construct: purchased R & D Systems, Inc, Minneapolis, MN, USA
T3 sequence (P30838 1-453): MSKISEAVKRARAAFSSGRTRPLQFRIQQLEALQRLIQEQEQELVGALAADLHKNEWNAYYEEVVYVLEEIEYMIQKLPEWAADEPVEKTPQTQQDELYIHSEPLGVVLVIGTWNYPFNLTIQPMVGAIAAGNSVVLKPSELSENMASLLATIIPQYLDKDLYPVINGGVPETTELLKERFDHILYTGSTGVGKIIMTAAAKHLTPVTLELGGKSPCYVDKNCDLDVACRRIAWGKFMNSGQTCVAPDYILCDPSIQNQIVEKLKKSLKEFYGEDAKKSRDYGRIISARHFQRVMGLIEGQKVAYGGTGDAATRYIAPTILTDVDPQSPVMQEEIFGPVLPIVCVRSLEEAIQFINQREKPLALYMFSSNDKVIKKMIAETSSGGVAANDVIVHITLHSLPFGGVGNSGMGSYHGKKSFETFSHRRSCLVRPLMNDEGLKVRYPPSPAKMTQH
Method: as §2, §3

[2] = system: UACC 903 and 1205 Lu cells; experiment: ROS assay (DCFDA), melanoma cells; format: cell-based, human; settings: 5 μM, 24 hours, vs DMSO
UACC 903 cells = experiment: MTS cell viability assay, UACC 903; format: cell-based, human; settings: 100 μM, 72 hours
Method: Cell viability assays of UACC 903 cells transfected with siRNA, and melanoma cell lines (UACC 903, 1205 Lu, C8161.CI9, MelJuSo), FF2441 and NHEM cells treated with ALDH inhibitors were performed. For this, 5,000 cells per well were plated in a 96-well plate and incubated overnight at 37° C. in a 5% CO2 atmosphere. For the siRNA knockdown experiment, cells were incubated for another 72 hours. For the ALDH inhibitor experiments, cells were treated with agents at various concentrations and incubated for 72 hours. 20 μL of MTS reagent was then added into each well and formation of tetrazolium was measured by absorbance after 1 hour at 492 nm. IC50 values or % cells for each experimental group were measured in three independent experiments using GraphPad Prism version 7.04 (GraphPad Software, La Jolla, CA).
(§4) Briefly, 3,000 cells per well were plated in a 96-well plate and incubated overnight at 37° C. in a 5% CO2 atmosphere. […] 20 μL of MTS reagent was then added into each well and formation of tetrazolium was measured by absorbance after 1 hour at 492 nm. IC50 values for each experimental group were measured in 3 independent experiments using GraphPad Prism version 7.04 (GraphPad Software, La Jolla, CA).

[3] = system: total cellular ALDH activity, UACC 903 cell lysates; experiment: Total cellular ALDH activity in cell lysates, UACC 903; format: cell-based, human; settings: 1 uM, 15 minutes, UACC 903 and 1205 Lu cell lysates
Text: The ALDHs reduce ROS, lipid peroxidation and toxic aldehyde accumulation, the latter of which can lead to cell damage and apoptosis as shown in FIG. 6A. Thus, inhibition of total cellular ALDH activity can increase toxic aldehydes, oxidative damage and apoptosis.

[4] = system: HCT116 colon cancer cell line; experiment: Lipid peroxidation and toxic aldehyde accumulation (TBARS), Study 2
[5] = system: multiple myeloma cell lines (NCIH929, U266, RPMI8226, MM.1R); experiment: MTS cell viability assay, multiple myeloma cells; format: cell-based; settings: 72 hours, read-out: Average IC50s across all multiple myeloma cell lines tested
Text: (§1) Tumour Biol 2017; 39(3):1010428317694565; Rao P C, et al., Cytotoxicity of withasteroids: withametelin induces cell cycle arrest at G2/M phase and mitochondria-mediated apoptosis in non-small cell lung cancer A549 cells. Tumour Biol 2016; 37(9):12579-87; Dinavahi S S, et al., Combined inhibition of PDE4 and PI3Kdelta modulates the inflammatory component involved in the progression of chronic obstructive pulmonary disease. Drug Res (Stuttg) 2014; 64(4):214-9). Briefly, 3,000 cells per well were plated in a 96-well plate and incubated overnight at 37° C. in a 5% CO2 atmosphere. […] 20 μL of MTS reagent was then added into each well and formation of […] was measured by absorbance after 1 hour at 492 nm. IC50 values for each experimental group were measured in 3 independent experiments using GraphPad Prism version 7.04 (GraphPad Software, La Jolla, CA).

Swiss-Webster mice = experiment: Toxicity study, 14 days; format: in vivo, mouse; settings: 5 mg/kg/day i.p. for 14 days, vs DMSO
Method: To determine the toxicity of 3(h-l), compounds were injected i.p. into Swiss-Webster mice once daily for 14 days (Id.). Animals were monitored for changes in body weight, behavior and physical distress compared to DMSO control.

[6] = system: colon cancer cell line, HCT116; experiment: Cell survival MTS assay with addition of NAC; format: cell-based
Method: as §4

[7] = system: colon cancer cell line HCT116; experiment: Cell cycle by propidium iodide staining, HCT116; format: cell-based; settings: reversed by addition of NAC
[8] = system: HCT116 colon cancer cells; experiment: Apoptosis by Annexin-V/7-AAD, HCT116; format: cell-based; design: dose or concentration left out as unconfirmed; settings: vs DMSO control or 3a
[9] = system: colon cell lines (HCT116, HT29); experiment: ROS assay (DCFDA) with or without NAC, Study 2; format: cell-based
Method: ROS activity was measured using DCFDA dye. […] Cells were incubated with 10 μM of DCFDA for 1 hour, and fluorescence was measured at 485 nm excitation and 510 nm emission. ROS levels in treated cells were compared to DMSO control.

[10] = system: Colon cancer cells (HCT116 and HT29); experiment: MTS cell viability assay, colon cancer cells; format: cell-based; settings: HCT116 and HT29, 72 hours; read-out: Average IC50s across both colon cancer cell lines
Text: as §1

[11] = system: melanoma cells (UACC 903 and 1205 Lu) and normal human fibroblasts (FF2441); experiment: MTS cell viability assay, all the cell lines evaluated; format: cell-based; settings: read-out: IC50s in all the cell lines evaluated
Text: as §1

Molecule `Cc1nc2ccccc2n1S(=O)(=O)c1ccc(F)cc1` [CB7] has an IC50 (ALDH2) of 144 µM and an IC50 (ALDH1A1) of 139 µM.

In the case of `CCN(CC)c1ccc(C=O)cc1` [DEAB], the “lipid peroxidation and toxic aldehyde accumulation” value [1] is reported as “significantly increased lipid peroxidation and toxic aldehyde accumulation”, the IC50 (ALDH3A1; as rounded in text, read-out: IC50 ALDH3A1) is reported as 15.1 µM and the IC50 (ALDH3A1; read-out: IC50s ALDH3A1) is reported as 15.1 µM. For the same molecule, the ROS levels [2] was “significantly increased ROS levels”, the “reduction of UACC 903 cell survival” value (UACC 903 cells) was 30% and the “effect on total cellular ALDH activity” value [3] was “significantly reduced”.

In the case of `Br.N=C(N)SCc1ccc(CN2C(=O)C(=O)c3cc(C(F)(F)F)ccc32)cc1` [Compound 3h, 2-[4-(2,3-Dioxo-5-trifluoromethyl-2,3-dihydroindol-1-ylmethyl)benzyl]isothiourea hydrobromide], the “lipid peroxidation and toxic aldehyde accumulation” value ([4]; 5 μM, 24 hours, vs DMSO) is reported as “significantly increased”, the “lipid peroxidation effect on addition of NAC” value ([4]; with NAC) is reported as “abrogated” and the IC50 [5] is reported as 1.9 µM. For the same molecule, the weight loss (Swiss-Webster mice) was “no significant weight loss”, the “increase of cell killing IC50 on addition of NAC” value [6] was 6 fold and the cell cycle effect [7] was “G2/M arrest”. For the same molecule, the “percentage of cells both Annexin-V and 7-AAD positive” value [8] was “significantly higher”, the ROS levels ([9]; 5 μM, 24 hours, vs DMSO) was “significantly increased ROS levels” and the “ROS-inducing activity on addition of N-Acetyl Cysteine (NAC)” value ([9]; with NAC) was “abrogated”. For the same molecule, the IC50 [10] was 5.3 µM.

In the case of `N=C(N)SCc1ccc(CN2C(=O)C(=O)c3cc(Cl)cc(Cl)c32)cc1` [Compound 3k, 2-[4-(5,7-Dichloro-2,3-dioxo-2,3-dihydroindol-1-ylmethyl)benzyl]isothiourea hydrobromide], the IC50 [5] is reported as 1.6 µM and the IC50 [10] is reported as 2.9 µM.

For `N=C(N)[Se]Cc1ccc(CN2C(=O)C(=O)c3cc(Br)ccc32)cc1` [Compound 4b, 2-[4-(5-Bromo-2,3-dioxo-2,3-dihydroindol-1-ylmethyl)benzyl]isoselenourea hydrobromide], the inhibition at 0.5 µM (ALDH3A1; read-out: % inhibition of ALDH3A1) was at least 60%.

In the case of `CCOC(=O)CSc1nc2c(sc3ccccc32)c(=O)n1CCCN1CCCC1` [CM037], the “lipid peroxidation and toxic aldehyde accumulation” value [1] is reported as “significantly increased lipid peroxidation and toxic aldehyde accumulation”, the ROS levels [2] is reported as “significantly increased ROS levels” and the “effect on total cellular ALDH activity” value [3] is reported as “significantly reduced”.

With `O=C1Nc2ccccc2C1=O` [Isatin] the “effect on total cellular ALDH activity” value [3] was “ineffective”.

`O=C1C(=O)N(Cc2ccccc2)c2ccccc21` [Cpd 3] was tested, and the IC50 [11] was over 100 µM.
